Each structure is given as a SMILES string.

The assay deals with T1, K103NNY181C mutant reverse transcriptase (Human immunodeficiency virus type 1 group M subtype B, UniProt P04585, K690N/Y768C).
T1 construct: mutations that occur in the reverse transcriptase segment of the pol gene
Description: Reverse transcriptase enzymatic assay (PicoGreen), K103N/Y181C mutant RT. The format is biochemical, HIV-1. To be noted: enzymatic assay of Example 24. In outline:
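PicoGreen fluorescence (ex 485, em 520 nm) quantified product after EDTA stop. Reaction ran 50 min at 37 °C in pH 7.8 Tris/HCl buffer, 1% DMSO, with poly rC/dG15 template-primer (45/4.5 nM), 3.6 μM dGTP, 2.5 nM enzyme; inhibitor 10 μM–0.508 nM final after 15 min room-temperature pre-incubation.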

[1] abbreviates: IC50 mut, mutant reverse transcriptase.
Where [2] appears, read: IC50 mut, K103N/Y181C mutant reverse transcriptase.
Where [3] appears, read: IC50 mut (nM), mutant (K103N/Y181C) reverse transcriptase.

`CC(C)(C)c1ccc(-n2nnnc2SCC(=O)Nc2ccc(-c3ccc(OCC(=O)O)cc3Cl)cc2Cl)c(Cl)c1` [Compound 3009] had an IC50 under setting [1] of 154 nM. This lies in the sub-micromolar range. In turn, `CC(C)(C)c1ccc(-n2nnnc2SCC(=O)Nc2ccc(C(=O)Nc3ccc(C(=O)O)cc3)cc2Cl)c(Cl)c1` [Compound 6014] gave an IC50 under setting [1] of 34 nM.

The compound `CC(C)(C#Cc1ccc(NC(=O)CSc2nnnn2-c2cc(C(F)(F)F)ccc2Cl)c(Cl)c1)OCCOc1ccncc1` [Compound 4168] had a half-inhibitory concentration (IC50) under setting [2] of 108 nM. For the compound `CC(C)(C)c1ccc(-n2nnnc2SCC(=O)Nc2ccc(NC(=O)Cn3cnnn3)cc2Cl)c(Cl)c1` [Compound 7040], half-maximal inhibition under setting [3] (IC50) was put at 42.5 nM. This counts as double-digit nanomolar.

Compound `CC(C)(C#Cc1ccc(NC(=O)CSc2nnnn2-c2ccc(C(C)(C)C)cc2Cl)c(Cl)c1)OCC(=O)Nc1ccc(O)cc1` [Compound 4024] yielded a 50% inhibitory concentration (IC50) under setting [2] of 35 nM.

The compound `CC(C)(C)c1ccc(-n2nnnc2SCC(=O)Nc2ccc(C(=O)NCc3cccnc3)cc2Cl)c(Cl)c1` [Compound 6008] registered a half-maximal inhibitory concentration (IC50) under setting [1] of 26 nM. The compound `O=C(O)Cc1ccc(-c2ccc(NC(=O)CSc3nnnn3-c3ccc(C(F)(F)F)cc3Cl)c(Cl)c2)cc1` [Compound 2023] returned an IC50 under setting [1] of 169 nM. Compound `Cc1cc(Cl)c(-n2nnnc2SCC(=O)Nc2ccc(C#CC(C)(C)C(=O)O)cc2Cl)cc1C(F)(F)F` [Compound 4063] yielded an IC50 under setting [2] of 51.5 nM. The compound `COC(=O)Cc1ccc(-c2ccc(NC(=O)CSc3nnnn3-c3ccc(C)cc3Cl)c([N+](=O)[O-])c2)cc1` [Compound 2010] showed an IC50 under setting [1] of 40 nM. The same measure, in the same setting: the same measure for `COC(=O)Cc1ccc(-c2ccc(NC(=O)CSc3nnnn3-c3ccc(C)cc3Cl)c(Cl)c2)cc1` [Compound 2003]: 53 nM. Take `CC(C)(C#Cc1ccc(NC(=O)CSc2nnnn2-c2cc(C(F)(F)F)ccc2Cl)c(Cl)c1)C(=O)O` [Compound 4196]: the IC50 under setting [2] turned out to be 198 nM. In turn, `CC(C)(C)c1ccc(-n2nnnc2SCC(=O)Nc2ccc(NC(=O)Cc3ccccn3)cc2Cl)c(Cl)c1` [Compound 7032] registered an IC50 under setting [3] of 30 nM. `C=C(C)C#Cc1ccc(NC(=O)CSc2nnnn2-c2ccc(C3CC3)cc2Cl)c(Cl)c1` [Compound 4112] gave an IC50 under setting [2] of 54 nM. Turning to `CC(C)(C#Cc1ccc(NC(=O)CSc2nnnn2-c2ccc(C(C)(C)C)cc2Cl)c(Cl)c1)C(=O)NCCN1CCOCC1` [Compound 4013], the IC50 under setting [2] was 62 nM. The same measure, in the same setting: as for `CC(C)(C#Cc1ccc(NC(=O)CSc2nnnn2-c2cc(F)ccc2Cl)c(Cl)c1)C(=O)O` [Compound 4212], the figure is 362 nM; as for `CC(C)(C)c1ccc(-n2nnnc2SCC(=O)Nc2ccc(C#CCN3CCCCC3)cc2Cl)c(Cl)c1` [Compound 4014], 88 nM. Same read-out and setting: as for `CC(C)(C#Cc1ccc(NC(=O)CSc2nnnn2-c2ccc(C3CC3)cc2Cl)c(Cl)c1F)NC(=O)CN1CCNCC1` [Compound 4198], the figure is 22 nM. The compound `CC(C)(C)c1ccc(-n2nnnc2SCC(=O)Nc2ccc(-c3ccc(OCCN4CCCCC4)cc3)cc2Cl)c(Cl)c1` [Compound 2039] came in with an IC50 under setting [1] of 28 nM. This counts as double-digit nanomolar. Under setting [2], `COc1ccc(Cl)c(-n2nnnc2SCC(=O)Nc2ccc(C#CC(C)(C)C(=O)O)cc2Cl)c1` [Compound 4114] yielded an IC50 of 200 nM. `C#Cc1ccc(NC(=O)CSc2nnnn2-c2ccc(C(C)(C)C)cc2Cl)c(Cl)c1` [Compound 4089] displayed a half-maximal inhibitory concentration (IC50) under setting [2] of 69 nM. For `O=C(O)Cc1ccc(-c2ccc(NC(=O)CSc3nnnn3-c3ccc(C4CC4)cc3Cl)c(Br)c2)cc1` [Compound 2048], half-maximal inhibition under setting [1] (IC50) was put at 13 nM.

For `O=C(CSc1nnnn1-c1ccc(C2CC2)cc1Cl)Nc1ccc(C(=O)NCCc2cc[n+]([O-])cc2)cc1Cl` [Compound 6035], the IC50 under setting [1] turned out to be 39 nM. In turn, `Cc1ccc(-n2nnnc2SCC(=O)Nc2ccc(C#CC(C)(C)O)cc2Cl)c(Cl)c1C(F)(F)F` [Compound 4059] came in with an IC50 under setting [2] of 656 nM.

Under setting [1], `CC(C)(C)c1ccc(-n2nnnc2SCC(=O)Nc2ccc(OCC(=O)N3CCOCC3)cc2Cl)c(Cl)c1` [Compound 5004] had an IC50 of 41 nM. Under setting [2], `CCNC(=O)NC(C)(C)C#Cc1ccc(NC(=O)CSc2nnnn2-c2ccc(C3CC3)cc2Cl)c(Cl)c1` [Compound 4075] displayed a half-maximal inhibitory concentration (IC50) of 20.5 nM. As to `CC(C)(C)c1ccc(-n2nnnc2SCC(=O)Nc2ccc(NC(=O)Nc3ccccc3)cc2Cl)c(Cl)c1` [Compound 7002], the midpoint of inhibition under setting [3], the IC50, lay at 187 nM. For `CC(C)(C)c1ccc(-n2nnnc2SCC(=O)Nc2ccc(OCC(=O)NCC(=O)O)cc2Cl)c(Cl)c1` [Compound 5020], under setting [1], the half-inhibitory concentration (IC50) came to 163 nM. Regarding `CC(C)(C#Cc1ccc(NC(=O)CSc2nnnn2-c2ccc(C3CC3)cc2Cl)c(Cl)c1F)OCCN1CCCC1` [Compound 4175], under setting [2], the IC50 worked out at 67 nM. Compound `CC(C)(C)c1ccc(-n2nnnc2SCC(=O)Nc2ccc(S(=O)(=O)Nc3ccccc3)cc2Cl)c(Cl)c1` [Compound 3026] had an IC50 under setting [1] of 423 nM. That is a sub-micromolar value. Still for that read-out and setting: the same measure for `CC(C)(C)c1ccc(-n2nnnc2SCC(=O)Nc2ccc(OCC(=O)Nc3ccc(CC(=O)O)cc3)cc2Cl)c(Cl)c1` [Compound 5023]: 38 nM. For `CC(C)(C)c1ccc(-n2nnnc2SCC(=O)Nc2ccc(NC(=O)Cc3ccc([N+](=O)[O-])cc3)cc2Cl)c(Cl)c1` [Compound 7025], the midpoint of inhibition under setting [3], the IC50, lay at 154 nM. The same measure, in the same setting: the same measure for `CC(C)(C)c1ccc(-n2nnnc2SCC(=O)Nc2ccc(NC(=O)Cc3ccccc3Cl)cc2Cl)c(Cl)c1` [Compound 7035]: 100 nM. `CC(C)(C#Cc1ccc(NC(=O)CSc2nnnn2-c2ccc(C3CC3)cc2Cl)c(Cl)c1)NC(=O)OC(C)(C)C` [Compound 4069] came in with a half-maximal inhibitory concentration (IC50) under setting [2] of 112 nM. On the same count and under the same terms, as for `CC(C)(C#Cc1ccc(NC(=O)CSc2nnnn2-c2ccc(C3CC3)cc2Cl)c(Cl)c1)NC(=O)c1csnn1` [Compound 4107], the figure is 15 nM.

As for `CC(C)(C#Cc1ccc(NC(=O)CSc2nnnn2-c2ccc(C(C)(C)C)cc2Cl)c(Cl)c1)OCC(=O)Nc1ccc(/C=C/C(=O)O)cc1` [Compound 4026], the half-inhibitory concentration (IC50) under setting [2] came out at 63 nM. Compared with the last compound, the IC50 is about 4.2-fold higher.

As to `CC(C)(C)c1ccc(-n2nnnc2SCC(=O)Nc2ccc(-c3ccc(OCCN4CCOCC4)cc3)cc2Cl)c(Cl)c1` [Compound 2022], under setting [1], 42 nM corresponded to half-maximal inhibition (IC50). `CC(C)(C)c1cc(Cl)c(-n2nnnc2SCC(=O)Nc2ccc(-c3ccc(CC(=O)O)cc3)cc2Cl)c(Cl)c1` [Compound 2020] showed an IC50 under setting [1] of 18 nM. Compared with the last compound, the IC50 is about 2.3-fold lower. As to `CC(C)(C)c1ccc(-n2nnnc2SCC(=O)Nc2ccc(NS(=O)(=O)c3ccccc3)cc2Cl)c(Cl)c1` [Compound 7003], under setting [3], 607 nM corresponded to half-maximal inhibition (IC50). Under setting [2], `CC(C)(C#Cc1ccc(NC(=O)CSc2nnnn2-c2cc(C(C)(C)C)ccc2Cl)c(Cl)c1)NC(=O)CNc1cc[n+]([O-])cc1` [Compound 4203] returned an IC50 of 164 nM. For the compound `CN(C)CCCC(=O)NC(C)(C)C#Cc1ccc(NC(=O)CSc2nnnn2-c2cc(C(F)(F)F)ccc2Cl)c(Cl)c1` [Compound 4147], the midpoint of inhibition under setting [2], the IC50, lay at 52 nM.

`Cc1ccc(-n2nnnc2SCC(=O)Nc2ccc(-c3ccc(CC(N)=O)cc3)cc2[N+](=O)[O-])c(Cl)c1` [Compound 2013] showed an IC50 under setting [1] of 20 nM. Turning to `CC(C)(C#Cc1ccc(NC(=O)CSc2nnnn2-c2ccc(C(C)(C)C)cc2Cl)c(Cl)c1)OCC(=O)NCc1ccco1` [Compound 4037], the IC50 under setting [2] was 66 nM. Same read-out and setting: as for `CC(C)(C#Cc1ccc(NC(=O)CSc2nnnn2-c2cc(Cl)ccc2Cl)c(Cl)c1)NC(=O)CN1CCNCC1` [Compound 4194], the figure is 45 nM; as for `CN(C)CCCC(=O)NC(C)(C)C#Cc1ccc(NC(=O)CSc2nnnn2-c2cc(C(F)(F)F)ccc2Cl)c(Cl)c1F` [Compound 4170], 33.5 nM. Under setting [1], `Cc1ccc(-n2nnnc2SCC(=O)Nc2ccc(-c3cccc(CC(=O)O)c3)cc2Cl)c(Cl)c1` [Compound 3004] returned an IC50 of 93 nM. For the compound `CN(C)CCCNC(=O)C(C)(C)C#Cc1ccc(NC(=O)CSc2nnnn2-c2ccc(CC3CC3)cc2Cl)c(Cl)c1` [Compound 4245], under setting [2], 459 nM corresponded to half-maximal inhibition (IC50). Turning to `COC(=O)CN(C)CCOc1ccc(-c2ccc(NC(=O)CSc3nnnn3-c3ccc(C(C)(C)C)cc3Cl)c(Cl)c2)cc1` [Compound 2043], the midpoint of inhibition under setting [1], the IC50, lay at 32 nM. The same measure, in the same setting: the same measure for `CC(C)(C)c1ccc(-n2nnnc2SCC(=O)Nc2ccc(C(=O)NCc3ccc(N)cc3)cc2Cl)c(Cl)c1` [Compound 6026]: 51 nM; for `CCNC(=O)c1ccc(NC(=O)CSc2nnnn2-c2ccc(C)cc2Cl)c(Cl)c1` [Compound 3008]: 300 nM. `CC(C)(C#Cc1ccc(NC(=O)CSc2nnnn2-c2ccc(C(C)(C)C)cc2Cl)c(Cl)c1)OCC(=O)Nc1ccon1` [Compound 4054] displayed a half-maximal inhibitory concentration (IC50) under setting [2] of 35 nM. Under setting [1], `O=C(COc1ccc(NC(=O)CSc2nnnn2-c2ccc(C3CC3)cc2Cl)c(Cl)c1)NCCc1cc[n+]([O-])cc1` [Compound 5040] had an IC50 of 563 nM. Consider `CC(C)(N)C#Cc1ccc(NC(=O)CSc2nnnn2-c2cc(C(C)(C)C)ccc2Cl)c(Cl)c1` [Compound 4201], for which, under setting [2], the concentration for half-maximal inhibition (IC50) was 52 nM. Compound `CC(C)(C)c1ccc(-n2nnnc2SCC(=O)Nc2ccc(C(=O)NCCO)cc2Cl)c(Cl)c1` [Compound 6016] showed a half-maximal inhibitory concentration (IC50) under setting [1] of 35 nM.

In turn, `CC(C)(C#Cc1ccc(NC(=O)CSc2nnnn2-c2ccc(CC3CC3)cc2Cl)c(Cl)c1)NC(=O)c1cc[n+]([O-])cc1` [Compound 4247] yielded a half-maximal inhibitory concentration (IC50) under setting [2] of 19 nM. That is a double-digit nanomolar value. As to `CS(=O)(=O)NC(=O)c1ccc(NC(=O)CSc2nnnn2-c2ccc(C3CC3)cc2Cl)c(Cl)c1` [Compound 6036], under setting [1], the half-inhibitory concentration (IC50) turned out to be 146 nM.

The term IC50 denotes the point on the concentration scale where inhibition reaches its midpoint. A low value points to higher potency.

Source of the values: patent publication US7517998B2, “Non nucleoside reverse transcriptase inhibitors” (priority 2004, dated 2009).
